{"source": "patent US20230165974A1", "about": "“COMPOSITIONS AND METHODS FOR DELIVERING PHARMACEUTICALLY ACTIVE AGENTS” (MEDIMMUNE, LLC, priority 2020, published 2023)", "key": {"H1299 cells": {"system": "H1299 cells", "assay": "Toxicity of polymer materials in vitro (metabolic/luminescent viability assay)", "assay_type": "cell-based", "settings": "H1299, 16-hour exposure, polymer in OPTI-MEM", "description": "Material toxicity was assessed using live dead assays.\nH1299 cells were seeded in 96-well plates (10000/well). After a 24 h recovery period, cells were treated with 0.1 to 2 μg of PEI (25K, Polyscience, Inc., Philadelphia Pa.), PLL (Alamanda Polymers, Inc., Huntsville Ala., 5 kDa), and P: PLL(M) 33, P: PLL(MN) 33, and P: PLL(TM) 33″ prepared in OPTI-MEM. After a 16-hour exposure, cells were analysed using a live/dead stain or metabolic assay. For the live/dead assay, 10 μL of Calcein AM (2 mM in DMSO) and 5 of propidium iodide (2 mM DMSO) stock solutions were dissolved in 5 mL of PBS. The cells were then washed with PBS twice and staining solution added (100 μL/well). After a 30-minute incubation period at 37° C., the cells were imaged using an IncuCyte plate reader (Sartorius). Alternatively, metabolic assays were performed using Celriter-Glo·Luminescent Assay using the manufacturers standard protocol. Luminescence measurements were collected using a PHERAStar plate reader (BMG LabTech) and IC50 doses were derived by fitting the data in Microsoft excel."}, "C2C12": {"system": "C2C12", "assay": "Toxicity of polymer materials in vitro (metabolic/luminescent viability assay)", "assay_type": "cell-based"}}, "data": [{"substance": "Poly-L-lysine [P: PLL]", "values": [{"measurement": "Toxicity/IC50", "setting": "H1299 cells", "value": 0.21, "unit": "μg/well"}, {"measurement": "Toxicity/IC50", "setting": "C2C12", "value": 0.33, "unit": "μg/well"}]}]}
